Data as given in US12194048B2, “Use of pyrrolopyridine derivatives for preventing or treating inflammatory diseases” (VORONOI CO., LTD., priority 2020, dated 2025).

Experiments:
[1] = tested on: IMQ-induced psoriasis-like skin inflammation model; assay: Oral treatment in imiquimod (IMQ)-induced psoriasis-like skin inflammation; format: in vivo, BALB/c mice
Procedure: The positive control, methotrexate at 2 mg/kg and tofacitinib at 5 mg/kg were administered by oral gavage twice (BID) daily during the same study period.
Fifteen (15) mg Imiquimod (IMQ) cream (5%) (Aldara; 3M Pharmaceuticals) was topically (TOP) administered once daily (QD) on the right ear one hour after treatment from Day 1 to Day 9 for 9 consecutive days, translating to a daily dose of 0.75 mg of the active compound. Ear swelling was measured on Day 0 and thereafter 30 min before dosing on Days 2, 4, 6 and 8. On Day 10, ear swelling was measured 24 hours after the last dosing.

[2] = tested on: IMQ-induced psoriasis-like skin inflammation model; assay: Topical treatment in imiquimod (IMQ)-induced psoriasis-like skin inflammation; format: in vivo, BALB/c mice; conditions: 0.15% topical; during the study period
Procedure: Dexamethasone (0.15%), the reference compound, was applied topically at 20 μL/mouse on the right ear once daily (QD) during the same study period.
Fifteen (15) mg imiquimod (IMQ) cream (5%) (Aldara; 3M Pharmaceuticals) was topically administered once daily (QD) on the right ear one hour after treatment from Day 1 to Day 9 for 9 consecutive days, translating to a daily dose of 0.75 mg of the active compound.
Ear swelling was measured on Day 0 and thereafter 30 min before dosing on Days 2, 4, 6 and 8. On Day 10, ear swelling was measured 24 hours after the last dosing.

CN(Cc1cnc2nc(N)nc(N)c2n1)c1ccc(C(=O)N[C@@H](CCC(=O)O)C(=O)O)cc1 [methotrexate]
body weight ([1]; 2 mg/kg PO BID×9 days, Day 9 to Day 10): significantly decreased | IMQ-induced ear swelling ([1]; 2 mg/kg oral gavage BID, Day 8, vs vehicle group): significant (p<0.05) effect

C[C@@H]1C[C@H]2[C@@H]3CCC4=CC(=O)C=C[C@]4(C)[C@@]3(F)[C@@H](O)C[C@]2(C)[C@@]1(O)C(=O)CO [dexamethasone, reference compound]
body weight [2]: significant (p<0.05) decrease

C[C@@H]1CCN(C(=O)CC#N)C[C@@H]1N(C)c1ncnc2[nH]ccc12 [Tofacitinib, tofacitinib]
IMQ-induced ear swelling ([1]; 5 mg/kg oral gavage BID, Day 8 to Day 10): significant (p<0.05) inhibition
